These results are taken from publication PMC4851402, “Validation of N-myristoyltransferase as Potential Chemotherapeutic Target in Mammal-Dwelling Stages of Trypanosoma cruzi” (PLoS Neglected Tropical Diseases, 2016).

“Also recorded” adds a separate entry of the source. Like-named read-outs stand apart in the source and are kept apart here.

The test system of data set [1] is Epi, ICA and TCT forms of T. cruzi. Nature of the data set: [35S]-Methionine labeling (protein translation). The class given is cell-based, Trypanosoma cruzi. To be noted: 10 μM, 12 h. As for the experimental part: Parasites were incubated with or without 10 μM of the inhibitors as described above. After 10 h, cells were starved in methionine deficient media for 1 h. Next, 20 μCi.mL^-1 [^35S]-methionine (Perkin Elmer) were added to the samples for 1 h incubation, for a 12-h treatment with the inhibitors. Next, the parasites were washed three times with PBS and lysed in 1% SDS, Tris-HCl, pH 8.0. Samples were ran in 4–12% gels (Expedeon, San Diego, CA) and transferred to polyvinylidene fluoride (PVDF) membranes (Sigma-Aldrich). Membranes were dried and exposed to Hyperfilm ECL (Amersham, GE Healthcare Lifesciences, Piscataway, NJ). To determine total protein levels, membranes were stained with Ponceau S after exposure.

For data set [2], the system named is T. cruzi intracellular amastigote proliferation. Kind of data set: In vitro T. cruzi intracellular proliferation assay in infected U2OS cells, high-content imaging. The class given is cell-based, Trypanosoma cruzi (Y strain). The note with it: read-out: T. cruzi proliferation assay EC50. As for the experimental part: DMSO control wells contained 30 μL 6% DMSO. Human […] (U2OS cells) were diluted in DMEM, 10% heat inactivated-fetal bovine serum (HI-FBS) to give a cell density of 2 x 10^5 cells/mL. T. cruzi trypomastigotes were resuspended in DMEM, 10% HI-FBS to a final density of 1.2 x 10^7. Cells and parasites were mixed a ratio of 4 volumes of cells plus 1 volume of parasites. 150 μL of the mixture were dispensed per well. Plates were incubated for 48 h. After the incubation period, media was removed from the wells and 100 μL 4% paraformaldehyde (PFA) were added. After 15 min of incubation at room temperature, PFA was removed and cells and parasites were stained with Draq5 (BioStatus, Leicestershire, UK) at a concentration of 5 μM diluted in PBS. The plates were then read in a bioimager system as described below. Three independent experiments were performed in triplicate wells.
Filter sets appropriate for the excitation and emission spectra of Draq5 were utilized. Images from four fields (2 x 2 montage) were acquired per well with a 20x objective. To perform the host cell segmentation and counting of parasites, the BD AttoVision v1.6.2 Sub Object analysis was used. Draq5 creates a background, staining the host cell and parasite nucleus, but defining the cytoplasm as well, determining this way the amount of parasites within each mammalian cell. The host cell nucleus was excluded by size difference. Raw data was imported into the BD Image Data Explorer (BD Biosciences) to determine the percentage of infected cells containing at least 1, at least 3 or at least 5 intracellular parasites.
(§1) EC50 were determined from three independent experiments.

Data set [3] deals with T. cruzi epimastigotes (Epi). Kind of data set: Cytotoxicity assay on epimastigotes (Alamar Blue). Type of data set: cell-based, Trypanosoma cruzi (Y strain). The note with it: after 72 h; for EC50: Trypanosoma cruzi, read-out: Epi forms EC50. Here is the method: DDD compounds 1–8 and the reference drug BZ were prepared 6-fold-concentrated in 6% DMSO, to give a final concentration of 1x compound in 1% DMSO. […] DMSO control wells contained 30 μL 6% DMSO, whereas wells for the negative control contained 1% hydrogen peroxide in DMEM. U2OS cells were resuspended in DMEM, 10% HI-FBS, to give a cell density of 2 x 10^5 cells/mL, while ICA forms were resuspended in DMEM, 10% HI-FBS, to a final density of 1 x 10^7 per well. Epi forms were resuspended in LIT medium to a density of 1 x 10^6 parasites per well. Hundred and fifty microliters of the suspension containing either host cells or parasites were added per well. Following 47- and 23-h incubation at 37°C for mammalian cells and ICA, respectively, a mixture of propidium iodide (Invitrogen) and Hoechst dye (Invitrogen) diluted in culture media (1 μg/mL each) was added to the plates, which were then further incubated for 1 h at 37°C. Finally, plates were read in the BD Pathway 855 bioimager system. In the case of Epi, after 68-h incubation at 28°C, 18 μL Alamar Blue (AbD Serotec, Raleigh, NC) were added per well. Following an additional 4-h incubation, the plate was read in a microplate fluorometer (Thermo Scientific) at excitation 560 nm, emission 590 nm. Three independent experiments were performed in triplicate wells. […] EC50 were determined from three independent experiments.
Background: Resazurin is reduced to fluorescent resorufin, in cell work by metabolically active cells.

Data set [4] concerns Purified ICAs of T. cruzi. Kind of data set: microbe, parasite or virus in culture. To be noted: for EC50: read-out: Purified ICAs EC50. The class given is cell-based, Trypanosoma cruzi (Y strain). As for the experimental part:
Intracellular amastigote (ICA) forms were purified as described. Briefly, 5 x 10^6 LLC-MK2 cells were seeded in a 150-cm^2 tissue culture flask (NUNC, Thermo Scientific) and cells were grown for 3–4 days to reach confluency of ~2 x 10^7 cells per flask. The medium was then replaced with fresh complete medium and host cells were infected with 1 x 10^8 TCT (multiplicity of infection (MOI) ≈ 5). After 5 days, the infected monolayers were gently detached by scraping and resuspended in 5 mL phosphate-buffered saline (PBS). The suspension containing the infected cells was next transferred to an M-tube (Miltenyi Biotec Inc., San Diego, CA). This tube bears a special stator and rotor that allows for tissue homogenization. In addition, it has a pre-inserted mesh that retains larger particles, removing them from the homogenized sample. The tube was then placed in the gentleMACS Dissociator (Miltenyi Biotec) for the automated disruption of host cells. The homogenized sample containing the parasites was then passed through a column containing anion exchange preswollen microgranular diethylaminoethyl cellulose (DE52, Whatman, Sigma-Aldrich).
(§2) DMSO control wells contained 30 μL 6% DMSO, whereas wells for the negative control contained 1% hydrogen peroxide in DMEM. U2OS cells were resuspended in DMEM, 10% HI-FBS, to give a cell density of 2 x 10^5 cells/mL, while ICA forms were resuspended in DMEM, 10% HI-FBS, to a final density of 1 x 10^7 per well. Epi forms were resuspended in LIT medium to a density of 1 x 10^6 parasites per well. Hundred and fifty microliters of the suspension containing either host cells or parasites were added per well. Following 47- and 23-h incubation at 37°C for mammalian cells and ICA, respectively, a mixture of propidium iodide (Invitrogen) and Hoechst dye (Invitrogen) diluted in culture media (1 μg/mL each) was added to the plates, which were then further incubated for 1 h at 37°C. […] In the case of Epi, after 68-h incubation at 28°C, 18 μL Alamar Blue (AbD Serotec, Raleigh, NC) were added per well. Following an additional 4-h incubation, the plate was read in a microplate fluorometer (Thermo Scientific) at excitation 560 nm, emission 590 nm. Three independent experiments were performed in triplicate wells.
as §1

Data set [5] has as its system TcNMT. Kind of data set: Western blotting of TcNMT expression in treated parasites. The note with it: 10 μM, 12 h. Type of data set: cell-based, Trypanosoma cruzi. As for the experimental part:
Parasites (1 x 10^7 cells) were incubated with or without 10 μM of the inhibitor (compound 1, 5, or 8) in 1 mL 10% HI-FBS, DMEM at 37°C for ICA and TCT, and at 28°C for Epi for 12 h. Next, parasites were washed three times with PBS and lysed in 1% SDS, Tris-HCl, pH 8.0. Samples were run in 10% SDS-PAGE followed by western blot probed with anti-TcNMT at dilution 1:1000 in 5% milk-PBS overnight. This was followed by incubation with anti-rabbit IgG-HRP conjugated. The membrane was next stripped with boiling stripping buffer (3% SDS, 0.3% β-mercaptoethanol) for 10 min, followed by 4 washes with 0.1% PBS-T. It was then blot again with anti-BiP at dilution 1:500 in 5% milk-PBS overnight, at 4°C, followed by anti-rabbit IgG HRP-conjugated.
Background: In western blotting, separated proteins are transferred to a membrane and probed.

Data set [6] deals with TcNMT. Nature of the data set: Metabolic labeling with myristic acid, azide and in-gel western blotting (on-target). Type of data set: cell-based, Trypanosoma cruzi. The note with it: 10 μM, 12 h, Epi, ICA and TCT. As for the experimental part: Parasites were incubated with or without 10 μM of the inhibitor 1, 5, or 8 in 1 mL 2% delipidated BSA-DMEM at 37°C for ICA and TCT and at 28°C for Epi. After 6 h, 100 μM myristic acid, azide (from a 50-mM stock in DMSO) were added to the samples, and the same volume of DMSO was added to the negative control. Cells were incubated for another 6 h, for a 12-h treatment with the inhibitors. Next, the parasites were washed three times with PBS and lysed in 1% SDS, Tris-HCl, pH 8.0. “Click” reaction was performed between the myristic acid azide and Biotin Alkyne (Invitrogen) according to the manufacturer instructions using the Click-iT Protein Reaction Buffer Kit (Invitrogen). Duplicate aliquots of lysates were ran in 10% SDS-PAGE followed by fixing (5% acetic acid, 50% isopropanol) for 15 min. Gels were then analyzed by in-gel western blotting using IRDye streptavidin (LI-COR Biosciences, Lincoln, NE) 1:7500 in 5% BSA, 0.05% SDS, 0.2% Tween in PBS, for 1 h at room temperature. They were subsequently treated or not with 0.2 M NaOH in methanol for 1 h at room temperature. Gels were scanned in an ODYSSEY quantitative imagining system (LI-COR Biosciences). They were next stained with Coomassie blue and scanned again to determine total protein levels.

The test system of a further data set is U2OS cells. Kind of data set: Cytotoxicity (viability) assay on non-infected U2OS cells, high-content imaging. To be noted: for EC50: Homo sapiens, read-out: U2OS cells EC50; for Toxicity on U2OS cells: after 48 h of treatment. The class given is cell-based, human. As for the experimental part: as §2, §1
The next data set has as its system T. brucei. Also noted: method as in PMID 20360736. To be noted: T. brucei bloodstream forms; cited from earlier work.
The mark [7] stands for this setting: Trypanosoma cruzi, U2OS, 48 h, infected U2OS cells, 48 h at 37°C.
[8] abbreviates: Trypanosoma cruzi, 24 h, purified ICAs, 24 h at 37°C.
[9] abbreviates: non-infected U2OS cells, 48 h at 37°C.

Consider `Cc1c(NS(=O)(=O)c2c(Cl)cc(-c3ccnc(N4CCNCC4)c3)cc2Cl)c(CC(C)C)nn1C` [Compound 1], for which, in data set [1], the “Incorporation of [35S]-methionine into proteins” value (“Incorporation” for short) is on record as “no effect”. Moreover, the EC50 is 0.18 µM in data set [2] (setting [7]); 1.83 µM in data set [4] (setting [8]); 1.8 µM in data set [4] (purified ICAs, 24 h at 37°C); 12.8 µM with U2OS cells (setting [9]). Besides, the “Effect on Epi parasite viability” value in data set [3] is “did not have a significant effect”. For the same compound, the “TcNMT expression in Epi” value in the data set with TcNMT [5] is “overexpression of TcNMT”. In addition, in the data set with TcNMT [6], the “Protein N-myristoylation bands (myristic acid azide labeling)” value (from here on “Protein N-myristoylation bands”) is “decreased intensity or complete loss of most of the bands”. Also, in the data set with U2OS cells, the “Toxicity on U2OS cells” value was “toxicity only at 50 μM”.
`Cc1nn(C)c(C)c1N(C(F)F)S(=O)(=O)c1c(Cl)cc(CCCC2CCN(C)CC2)cc1Cl` [Compound 5]: the “Incorporation” value in data set [1] is “no effect”. For the same compound, the EC50 was found to be 0.26 µM in data set [2] (setting [7]), 9.7 µM in data set [3], 0.06 µM in data set [4] (setting [8]) and 11.4 µM with U2OS cells (setting [9]). Also, the “TcNMT expression in Epi” value with TcNMT [5] was “overexpression of TcNMT”. Also, the “Protein N-myristoylation bands” value in the data set on TcNMT [6] is given as “decreased intensity or complete loss of most of the bands”. For the same compound, the “Toxicity on U2OS cells” value with U2OS cells is “toxicity only at 50 μM”.
Consider `Cc1nn(C)c(C)c1N(CC(F)(F)F)S(=O)(=O)c1c(Cl)cc(CCCC2CCN(C)CC2)cc1Cl` [Compound 7], for which the EC50 stood at 1.01 µM in data set [2] (setting [7]), 11.1 µM in data set [4] (setting [8]) and 13.9 µM in the data set with U2OS cells (setting [9]).
As to `Cc1c(NS(=O)(=O)c2ccc(CCCC3CCN(C)CC3)cc2)c(CC(C)C)nn1C` [Compound 4], the figures for the EC50 (in data set [2] (setting [7]); in data set [4] (setting [8]); in the data set on U2OS cells (setting [9])) were 0.54 µM, > 50 µM and > 50 µM, respectively.
For `Cc1nn(C)c(C)c1N(C(F)F)S(=O)(=O)c1c(Cl)cc(CCCCC2CCN(C)CC2)cc1Cl` [Compound 8], in data set [1], the “Incorporation” value is recorded as “no effect”. Further, the EC50 is 0.35 µM in data set [2] (setting [7]), 2.1 µM in data set [3], 0.02 µM in data set [4] (setting [8]) and 11.9 µM in the data set on U2OS cells (setting [9]). In the data set with TcNMT [5], the “TcNMT expression in Epi” value is listed as “overexpression of TcNMT”. Also, in the data set with TcNMT [6], the “Protein N-myristoylation bands” value is “decreased intensity or complete loss of most of the bands”. Besides, the “Toxicity on U2OS cells” value in the data set on U2OS cells is “toxicity only at 50 μM”.
As for `Cc1nn(C)c(Cl)c1NS(=O)(=O)c1c(Cl)cc(-c2ccnc(N3CCNCC3)c2)cc1Cl` [Compound 2], the EC50 was 1.14 µM in data set [2] (setting [7]); 1.1 µM in data set [2] (infected U2OS cells, 48 h at 37°C); > 50 µM in data set [4] (setting [8]); > 50 µM with U2OS cells (setting [9]). In data set [4] (purified ICA), the “Trypanocidal activity against purified ICA forms” value was “no significant trypanocidal activity; also recorded: not trypanocidal”. Further, in the data set on T. brucei, the “Efficacy in mouse model of human African trypanosomiasis” value is “curative”.
For the compound `Cc1c(NS(=O)(=O)c2ccc(-c3cccc(CN(C)C)c3)cc2)c(CC(C)C)nn1C` [Compound 6], the EC50 in data set [2] (setting [7]) is 0.99 µM; in data set [4] (setting [8]), > 50 µM; in the data set on U2OS cells (setting [9]), > 50 µM.
In the case of `Cc1nn(C)c(C)c1NS(=O)(=O)c1c(Cl)cc(CCCN2CCN(C)CC2)cc1Cl` [Compound 3], the EC50 in data set [2] (Trypanosoma cruzi, U2OS, 48 h) was 10.3 µM; in data set [4] (Trypanosoma cruzi, 24 h), > 50 µM; in the data set on U2OS cells (U2OS, 48 h), > 50 µM.
